ChEMBL document CHEMBL1146892, “Pyrrolidine bis-cyclic guanidines with antimicrobial activity against drug-resistant Gram-positive pathogens identified from a mixture-based combinatorial library” (2006)
Values after ≈ are worked out from the molar mass of the structure shown.

Columns and labels:
Type in all cases: functional
Escherichia coli = experiment: Antibacterial activity against Escherichia coli ATCC 25922
Enterococcus faecalis = experiment: Antibacterial activity against vancomycin-resistant Enterococcus faecalis ATCC 51299
Staphylococcus aureus = experiment: Antibacterial activity against methicillin-resistant Staphylococcus aureus ATCC 33591

| SMILES | MBC (Escherichia coli) [µg/mL] | MIC (Escherichia coli) [µg/mL] | MBC (Enterococcus faecalis) [µg/mL] | MIC (Enterococcus faecalis) [µg/mL] | MBC (Staphylococcus aureus) [µg/mL] | MIC (Staphylococcus aureus) [µg/mL] |
| --- | --- | --- | --- | --- | --- | --- |
| CC(C)Cc1ccc(C(C)CN2C(=N)N([C@H](CC3CCCCC3)CN3CCCC3CN3C(N)=NC[C@@H]3C)C[C@H]2CC2CCCCC2)cc1 (stereo not given in full) | 5 (≈ 7.58 µM) | 5 (≈ 7.58 µM) | < 2.5 | < 2.5 | 2.5 (≈ 3.79 µM) | < 2.5 |
| CC(C)Cc1ccc(C(C)CN2C(=N)N([C@@H](CC3CCCCC3)CN3CCCC3CN3C(N)=NC[C@@H]3C)C[C@H]2CC2CCCCC2)cc1 (stereo not given in full) | > 10 | > 10 | > 10 | < 2.5 | < 2.5 | < 2.5 |
| N=C1N(CCc2cc(C(F)(F)F)cc(C(F)(F)F)c2)[C@H](CC2CCCCC2)CN1[C@H](CC1CCCCC1)CN1CCCC1CN1C(N)=NC[C@@H]1Cc1ccccc1 (stereo not given in full) | > 10 | > 10 | 2.5 (≈ 3.12 µM) | 2.5 (≈ 3.12 µM) | < 2.5 | < 2.5 |
| CC(C)Cc1ccc(C(C)CN2C(=N)N([C@@H](CC3CCCCC3)CN3CCCC3CN3C(N)=NC[C@@H]3C)C[C@@H]2CC2CCCCC2)cc1 (stereo not given in full) | 5 (≈ 7.58 µM) | 5 (≈ 7.58 µM) | > 10 | < 2.5 | 2.5 (≈ 3.79 µM) | < 2.5 |
| CCCC[C@@H]1CN([C@@H](CC2CCCCC2)CN2CCCC2CN2C(N)=NC[C@@H]2Cc2ccccc2)C(=N)N1CCc1cc(C(F)(F)F)cc(C(F)(F)F)c1 (stereo not given in full) | > 10 | > 10 | < 2.5 | < 2.5 | < 2.5 | < 2.5 |
| C[C@H]1CN=C(N)N1CC1CCCN1C[C@@H](Cc1ccc2ccccc2c1)N1C[C@H](CC2CCCCC2)N(CCc2cc(C(F)(F)F)cc(C(F)(F)F)c2)C1=N (stereo not given in full) | 5 (≈ 6.49 µM) | 5 (≈ 6.49 µM) | < 2.5 | < 2.5 | < 2.5 | < 2.5 |
| N=C1N(CCc2cc(C(F)(F)F)cc(C(F)(F)F)c2)[C@@H](CC2CCCCC2)CN1[C@H](CC1CCCCC1)CN1CCCC1CN1C(N)=NC[C@@H]1Cc1ccccc1 (stereo not given in full) | > 10 | > 10 | > 10 | 2.5 (≈ 3.12 µM) | < 2.5 | < 2.5 |
| N=C1N(CCc2cc(C(F)(F)F)cc(C(F)(F)F)c2)[C@H](CC2CCCCC2)CN1[C@H](Cc1ccc2ccccc2c1)CN1CCCC1CN1C(N)=NC[C@@H]1Cc1ccccc1 (stereo not given in full) | > 10 | > 10 | > 10 | < 2.5 | 2.5 (≈ 2.96 µM) | < 2.5 |
| N=C1N(CCc2cc(C(F)(F)F)cc(C(F)(F)F)c2)[C@H](CC2CCCCC2)CN1[C@@H](CC1CCCCC1)CN1CCCC1CN1C(N)=NC[C@@H]1Cc1ccccc1 (stereo not given in full) | 5 (≈ 6.23 µM) | 5 (≈ 6.23 µM) | < 2.5 | < 2.5 | < 2.5 | < 2.5 |
| C[C@H]1CN=C(N)N1CC1CCCN1C[C@@H](CC1CCCCC1)N1C[C@H](CC2CCCCC2)N(CCc2cc(C(F)(F)F)cc(C(F)(F)F)c2)C1=N (stereo not given in full) | 5 (≈ 6.89 µM) | 5 (≈ 6.89 µM) | 2.5 (≈ 3.44 µM) | < 2.5 | 2.5 (≈ 3.44 µM) | < 2.5 |
| N=C1N(CCc2cc(C(F)(F)F)cc(C(F)(F)F)c2)[C@@H](CC2CCCCC2)CN1[C@@H](CC1CCCCC1)CN1CCCC1CN1C(N)=NC[C@@H]1Cc1ccccc1 (stereo not given in full) | > 10 | > 10 | > 10 | < 2.5 | < 2.5 | < 2.5 |
| CCCC[C@@H]1CN([C@H](CC2CCCCC2)CN2CCCC2CN2C(N)=NC[C@@H]2C)C(=N)N1CCc1cc(C(F)(F)F)cc(C(F)(F)F)c1 (stereo not given in full) | > 10 | > 10 | > 10 | > 10 | < 2.5 | < 2.5 |
| C[C@H]1CN=C(N)N1CC1CCCN1C[C@@H](CC1CCCCC1)N1C[C@@H](CC2CCCCC2)N(CCc2cc(C(F)(F)F)cc(C(F)(F)F)c2)C1=N (stereo not given in full) | 5 (≈ 6.89 µM) | 5 (≈ 6.89 µM) | > 10 | < 2.5 | 2.5 (≈ 3.44 µM) | < 2.5 |
| CCCC[C@@H]1CN([C@@H](CC2CCCCC2)CN2CCCC2CN2C(N)=NC[C@@H]2Cc2ccccc2)C(=N)N1CC(C)c1ccc(CC(C)C)cc1 (stereo not given in full) | > 10 | > 10 | < 2.5 | < 2.5 | 2.5 (≈ 3.59 µM) | < 2.5 |
| C[C@H]1CN=C(N)N1CC1CCCN1C[C@H](CC1CCCCC1)N1C[C@H](CC2CCCCC2)N(CCc2cc(C(F)(F)F)cc(C(F)(F)F)c2)C1=N (stereo not given in full) | > 10 | > 10 | > 10 | < 2.5 | < 2.5 | < 2.5 |
| CCCC[C@@H]1CN([C@H](Cc2ccc3ccccc3c2)CN2CCCC2CN2C(N)=NC[C@@H]2C)C(=N)N1CCc1cc(C(F)(F)F)cc(C(F)(F)F)c1 (stereo not given in full) | > 10 | > 10 | > 10 | < 2.5 | 2.5 (≈ 3.43 µM) | < 2.5 |
| CCCC[C@@H]1CN([C@@H](CC2CCCCC2)CN2CCCC2CN2C(N)=NC[C@@H]2C)C(=N)N1CCc1cc(C(F)(F)F)cc(C(F)(F)F)c1 (stereo not given in full) | > 10 | > 10 | > 10 | > 10 | 2.5 (≈ 3.65 µM) | 2.5 (≈ 3.65 µM) |
| N=C1N(CCc2cc(C(F)(F)F)cc(C(F)(F)F)c2)[C@@H](CC2CCCCC2)CN1[C@H](Cc1ccc2ccccc2c1)CN1CCCC1CN1C(N)=NC[C@@H]1Cc1ccccc1 (stereo not given in full) | > 10 | > 10 | < 2.5 | < 2.5 | < 2.5 | < 2.5 |
| CC(C)Cc1ccc(C(C)CN2C(=N)N([C@H](CC3CCCCC3)CN3CCCC3CN3C(N)=NC[C@@H]3Cc3ccccc3)C[C@@H]2CC2CCCCC2)cc1 (stereo not given in full) | > 10 | > 10 | > 10 | < 2.5 | 2.5 (≈ 3.4 µM) | < 2.5 |
| CCCC[C@@H]1CN([C@H](CC2CCCCC2)CN2CCCC2CN2C(N)=NC[C@@H]2Cc2ccccc2)C(=N)N1CCc1cc(C(F)(F)F)cc(C(F)(F)F)c1 (stereo not given in full) | 5 (≈ 6.56 µM) | 5 (≈ 6.56 µM) | < 2.5 | < 2.5 | 2.5 (≈ 3.28 µM) | < 2.5 |
| CC(C)Cc1ccc(C(C)CN2C(=N)N([C@@H](CC3CCCCC3)CN3CCCC3CN3C(N)=NC[C@@H]3Cc3ccccc3)C[C@@H]2CC2CCCCC2)cc1 (stereo not given in full) | > 10 | > 10 | < 2.5 | < 2.5 | < 2.5 | < 2.5 |
| CC(C)Cc1ccc(C(C)CN2C(=N)N([C@H](CC3CCCCC3)CN3CCCC3CN3C(N)=NC[C@@H]3Cc3ccccc3)C[C@H]2CC2CCCCC2)cc1 (stereo not given in full) | 5 (≈ 6.79 µM) | 5 (≈ 6.79 µM) | > 10 | 2.5 (≈ 3.4 µM) | < 2.5 | < 2.5 |
| CCCC[C@@H]1CN([C@H](CC2CCCCC2)CN2CCCC2CN2C(N)=NC[C@@H]2Cc2ccccc2)C(=N)N1CC(C)c1ccc(CC(C)C)cc1 (stereo not given in full) | > 10 | > 10 | < 2.5 | < 2.5 | < 2.5 | < 2.5 |
| CC(C)Cc1ccc(C(C)CN2C(=N)N([C@H](CC3CCCCC3)CN3CCCC3CN3C(N)=NC[C@@H]3C)C[C@@H]2CC2CCCCC2)cc1 (stereo not given in full) | 5 (≈ 7.58 µM) | 5 (≈ 7.58 µM) | > 10 | < 2.5 | < 2.5 | < 2.5 |
| CCCC[C@@H]1CN([C@H](Cc2ccc3ccccc3c2)CN2CCCC2CN2C(N)=NC[C@@H]2Cc2ccccc2)C(=N)N1CC(C)c1ccc(CC(C)C)cc1 (stereo not given in full) | > 10 | > 10 | > 10 | < 2.5 | 2.5 (≈ 3.38 µM) | < 2.5 |
